According to patent publication US10696622B2, “Synthesis of N-vinyl carboxylic acid amides” (Taminco BVBA, priority 2016, dated 2020):

Assay: Solubility in solvent, CIPAC Method MT 181 at 20° C.
Type: physicochemical
Excerpt: When used, the solvent introduced into first reaction zone 20 may be any suitable type of solvent. The solvent may include a single solvent, or it may comprise a mixture of two or more solvents. In some embodiments, the solvent may be selected based on its solubility with one or more of the starting materials in lines 110, 112, and/or 114, and/or with the reaction product produced within first reaction zone 20. For example, at least one of the starting materials introduced into and/or the product withdrawn from first reaction zone 20 may have a solubility of at least about 20, at least about 25, at least about 30, at least about 35, at least about 40, at least about 45, at least about 50, at least about 55 weight percent in the solvent introduced into first reaction zone 20. In addition, or the alternative, at least one of the reagents introduced into and/or the reaction product withdrawn from first reaction zone 20 may have a solubility of not more than about 80, not more than about 75, not more than about 70, not more than about 65 weight percent in the solvent introduced into first reaction zone 20. Solubility is measured at 20° C. using CIPAC Method MT 181, unless otherwise noted.

CC(O)NC=O (centres unmarked) [1-hydroxyethylformamide]
solubility of 1-hydroxyethylformamide in formamide (in formamide): about 60 weight percent | solubility of 1-hydroxyethylformamide in isopropanol (in isopropanol, measured as described above (20° C., CIPAC Method MT 181)): 20.1 weight percent
